Results on 14 compounds are retold here after US12448363B2, “Kinase inhibitors” (Vidya Therapeutics, Inc., priority 2020, dated 2025).

The experiment addresses BTK (Homo sapiens, UniProt Q06187). In words: Assay to determine BTK inactivation rate in human whole blood (ELISA of unoccupied BTK). The class given is cell-based. Also noted: Human whole blood is obtained from StemExpress; tissue StemExpress; host or cells: human whole blood. The following applies: 37° C., 5, 15, 30, 60 minutes; for kinact/KI: read-out: BTK hWB Kinact/Ki. As to the method:
Human Whole Blood Compound Treatment and Lysis
Human whole blood is obtained from StemExpress and kept at ambient temperature until the time of the experiment. […] This is prepared fresh each experimental day. […] Compounds are reconstituted to stocks of 10 mM and are diluted in two-fold serial dilutions to generate an 8-point curve in DMSO, with the last point being DMSO only, creating a 100× dilution series. A working 10× dilution series is created using 1.0 μL of the prepared DMSO titration, 100×, into […] 1×PBS in order to keep the DMSO constant. The human whole blood is added in the volume of 225 μL per well in a new 96w v-bottom plate, where one column of eight wells is sufficient for testing one compound. For compound treatment, 25 μL of 10× dilution series in PBS is added to the 225 μL whole blood, followed by briefly pipetting up and down twice. The plates are covered with lids and incubated at 37° C. for 5, 15, 30, 60 minutes. At each timepoint, 30 μL of treated blood is pulled from each column and added to preloaded collection plates that contain 30 μL of supplemented lysis buffer and mixed briefly. The collected and lysed samples shake on rotator for 60 minutes at room temperature. These samples are used fresh for detection via ELISA, and remaining sample is frozen at −80° C. if a repeat is necessary.
ELISA: Determining Amount of Unoccupied BTK
All streptavidin pre-coated plates (R&D Systems, #CP004) are brought to room temperature while samples are lysing. Assay Buffer 1, 1×PBS+0.05% Tween 20+1% BSA is prepared and stored at 4° C. when not in use. Using this Assay Buffer, assay buffer+1× protease/phosphatase inhibitor cocktail (PICs) is prepared in the amount needed for all samples. Assay Buffer+PICs in the volume of 90 μL/well is added to the ELISA plate. Lysed blood sample (10 μL) is added to the ELISA plate. BTK recombinant protein dilutions are prepared in assay buffer+PICS for use as a μM). The standard is loaded into the ELISA plate at 100 μL/well, in duplicate. These samples and standards remain in the plate, sealed, overnight at 4° C. The following day, the plate is washed four times with 1× Wash Buffer (1×PBS+0.05% Tween 20) using a plate washer. The plate is inverted to expel all fluid each time and blotted on clean paper towels to remove remaining liquid. Assay Buffer 2 is prepared (1×PBS+0.05% Tween 20+0.05% BSA) and kept at 4° C. when not in use. […] Diluted a-BTK antibody is added at 100 μl/well. The plate is covered with adhesive film and incubated for 90 minutes at room temperature. The plate is washed four times with 1× Wash Buffer (1×PBS+0.05% Tween 20) using a plate washer. The plate is inverted to expel all fluid each time and blotted on clean paper towels to remove remaining liquid. […] The diluted antibody is added at 100 μl/well. The plate is covered with adhesive film and incubated for one hour at room temperature. The plate is washed four times with 1× Wash Buffer using a plate washer. The plate is inverted to expel all fluid each time and blotted on clean paper towels to remove remaining liquid. […] The plate is incubated at room temperature in the dark for −5-10 minutes. The reaction is stopped by adding 50 μl/well 2N sulfuric acid (H2SO4) (R&D Systems, #DY994). The plate is read in a plate reader at the wavelengths […] and 570 nm (correction wavelength). Using Graphpad Prism, an XY table+graph is created, listing 0-60 minutes as X axis and concentration as Y axis. A One Phase Decay model fit is applied to the data. Checking Results table, the K values are obtained and new XY table+graph are created. Concentration is assigned to the X axis and K values from first analysis are entered. The Michaelis-Menten equation is applied to the data.
(In general: An ELISA detects its analyte on a solid surface through an enzyme-linked reagent.)

Each structure is given as a SMILES string.

Sequence of BTK (Q06187 whole entry): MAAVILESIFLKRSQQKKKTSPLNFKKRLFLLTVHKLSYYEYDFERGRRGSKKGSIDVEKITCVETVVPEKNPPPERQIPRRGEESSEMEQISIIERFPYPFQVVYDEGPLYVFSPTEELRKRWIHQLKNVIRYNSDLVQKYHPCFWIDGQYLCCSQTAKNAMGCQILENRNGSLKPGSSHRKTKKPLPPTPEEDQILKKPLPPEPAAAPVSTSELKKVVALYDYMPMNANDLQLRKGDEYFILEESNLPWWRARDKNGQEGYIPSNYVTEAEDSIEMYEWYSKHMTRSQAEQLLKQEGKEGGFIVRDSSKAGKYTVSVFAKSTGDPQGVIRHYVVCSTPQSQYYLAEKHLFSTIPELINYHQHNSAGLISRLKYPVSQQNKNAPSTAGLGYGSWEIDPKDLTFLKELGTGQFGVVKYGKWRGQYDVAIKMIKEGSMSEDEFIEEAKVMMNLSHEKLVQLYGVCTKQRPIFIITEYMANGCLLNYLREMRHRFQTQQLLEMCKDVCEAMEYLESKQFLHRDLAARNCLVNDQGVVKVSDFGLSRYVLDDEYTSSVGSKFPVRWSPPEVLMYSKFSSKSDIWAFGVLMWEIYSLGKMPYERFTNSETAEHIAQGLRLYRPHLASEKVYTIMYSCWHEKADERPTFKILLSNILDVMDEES

Regarding `C=CC(=O)N1CCc2c(-c3c(F)cc(C(N)=O)c4[nH]c(C)c(Cl)c34)cccc2C1C` (racemic) [Compound 22a, 4-(2-acryloyl-1-methyl-1,2,3,4-tetrahydroisoquinolin-5-yl)-3-chloro-5-fluoro-2-methyl-1H-indole-7-carboxamide], the kinact/KI lay within 1670 to 16700 M⁻¹ s⁻¹.
On the same count and under the same terms, then `C=CC(=O)N1CCC2CCN(c3c(F)cc(C(N)=O)c4[nH]c(C)c(Cl)c34)CC21` (racemic) [Compound 29, 4-(1-acryloyloctahydro-6H-pyrrolo[2,3-c]pyridin-6-yl)-3-chloro-5-fluoro-2-methyl-1H-indole-7-carboxamide], with 1670 to 16700 M⁻¹ s⁻¹; and `C=CC(=O)N1CCc2c(cccc2-c2c(F)cc(C(N)=O)c3[nH]c(C)c(Cl)c23)C1` (single isomer, unassigned) [Compound 20b], with 1670 to 16700 M⁻¹ s⁻¹; and `C=CC(=O)N1CCC2CCN(c3c(F)cc(C(N)=O)c4[nH]c(C)c(Cl)c34)CC21` (single isomer, unassigned) [Compound 29a, 4-(1-acryloyloctahydro-6H-pyrrolo[2,3-c]pyridin-6-yl)-3-chloro-5-fluoro-2-methyl-1H-indole-7-carboxamide], with less than 1670 M⁻¹ s⁻¹.
Take `C=CC(=O)N1CCC2CCN(c3c(F)cc(C(N)=O)c4[nH]c(C)c(C)c34)CC21` (single isomer, unassigned) [Compound 32b, 4-(1-acryloyloctahydro-6H-pyrrolo[2,3-c]pyridin-6-yl)-5-fluoro-2,3-dimethyl-1H-indole-7-carboxamide]: the “BTK hWB Kinact/Ki” value was “C (a Kinact/Ki<1×10^−4 nM^−1 min^−1)”.
In the case of `C=CC(=O)N1CCC=C(c2c(F)cc(C(N)=O)c3[nH]c(C)c(Cl)c23)C1` [Compound 1, 4-(1-acryloyl-1,2,5,6-tetrahydropyridin-3-yl)-3-chloro-5-fluoro-2-methyl-1H-indole-7-carboxamide], the kinact/KI is more than 16700 M⁻¹ s⁻¹.
In the case of `C=CC(=O)N1CCC[C@@H](c2c(F)cc(C(N)=O)c3[nH]c(C)c(Cl)c23)C1` [Compound 2a, (S)-4-(1-acryloylpiperidin-3-yl)-3-chloro-5-fluoro-2-methyl-1H-indole-7-carboxamide], the kinact/KI is more than 16700 M⁻¹ s⁻¹.
As for `C=CC(=O)N1CCC[C@H](c2c(F)c(F)c(C(N)=O)c3[nH]c(C)c(F)c23)C1` [Compound 6a, (R)-4-(1-acryloylpiperidin-3-yl)-3,5,6-trifluoro-2-methyl-1H-indole-7-carboxamide], the kinact/KI is more than 16700 M⁻¹ s⁻¹.
Regarding `C=CC(=O)N1CCC[C@@H](c2c(F)c(F)c(C(N)=O)c3[nH]c(C)c(F)c23)C1` [Compound 6b, (S)-4-(1-acryloylpiperidin-3-yl)-3,5,6-trifluoro-2-methyl-1H-indole-7-carboxamide], the kinact/KI was more than 16700 M⁻¹ s⁻¹.
`C=CC(=O)N1CCC[C@@H](c2c(F)c(F)c(C(N)=O)c3[nH]c(C)c(Cl)c23)C1` [Compound 16, (S)-4-(1-acryloylpiperidin-3-yl)-3-chloro-5,6-difluoro-2-methyl-1H-indole-7-carboxamide]: the kinact/KI is more than 16700 M⁻¹ s⁻¹.
Same read-out and setting: for `CC#CC(=O)N[C@H]1C[C@@H](F)CN(c2c(F)cc(C(N)=O)c3[nH]c(C)c(Cl)c23)C1` [Compound 27, 4-((3S,5R)-3-(but-2-ynamido)-5-fluoropiperidin-1-yl)-3-chloro-5-fluoro-2-methyl-1H-indole-7-carboxamide] the value was 1670 to 16700 M⁻¹ s⁻¹; for `CC#CC(=O)N[C@H]1C[C@@H](F)CN(c2c(F)cc(C(N)=O)c3[nH]c(C)c(C)c23)C1` [Compound 33, 4-((3S,5R)-3-(but-2-ynamido)-5-fluoropiperidin-1-yl)-5-fluoro-2,3-dimethyl-1H-indole-7-carboxamide], more than 16700 M⁻¹ s⁻¹; for `CC#CC(=O)N[C@H]1C[C@H](F)CN(c2c(F)cc(C(N)=O)c3[nH]c(C)c(C)c23)C1` [Compound 35, 4-((3S,5S)-3-(but-2-ynamido)-5-fluoropiperidin-1-yl)-5-fluoro-2,3-dimethyl-1H-indole-7-carboxamide], more than 16700 M⁻¹ s⁻¹.
Still for that read-out and setting: then `CC#CC(=O)N1CCCC2CN(c3c(F)cc(C(N)=O)c4[nH]c(C)c(Cl)c34)CC21` (centres unmarked) [Compound 40, 4-(1-(but-2-ynoyl)octahydro-6H-pyrrolo[3,4-b]pyridin-6-yl)-3-chloro-5-fluoro-2-methyl-1H-indole-7-carboxamide], with less than 1670 M⁻¹ s⁻¹.
